Results from US11884683B2, “Tricyclic heterocycle compounds useful as HIV integrase inhibitors” (Merck Sharp & Dohme LLC, priority 2018, dated 2024).
Read-outs that look alike come from different tables or passages of the source.

Test system: HIV-1 (H9/IIIB strain)
Test: Multiple round HIV-1 infection assay in MT4-GFP cells (wild type cell assay, Viking)
Format: cell-based
Conditions: 0% NHS condition, MT4-GFP cells infected with HIV-1 H9/IIIB, inhibition of reproductive ratio R0, ~48 h and ~72 h post-infection, read-out: WILD TYPE CELL ASSAY Viking IP (0% NHS)
Procedure: Assessing Antiviral Potency in a Multiple Round HIV-1 Infection Assay
The antiviral activity of the Examples herein was assessed in an assay that measures the rate of replication of HIV in cell culture, and performed according to the following procedure. HIV-1 replication was monitored using MT4-gag-GFP clone D3 (hereafter designated MT4-GFP), which are MT-4 cells modified to harbor a GFP reporter gene, the expression of which is dependent on the HIV-1 expressed proteins tat and rev. Productive infection of an MT4-GFP cell with HIV-1 results in GFP expression approximately 24 h post-infection. MT4-GFP cells were maintained at 37° C./5% CO2/90% relative humidity in RPMI 1640 supplemented with 10% fetal bovine serum, 100 U/ml penicillin/streptomycin, and 400 μg/ml G418 to maintain the reporter gene. For infections, MT4-GFP cells were placed in the same medium lacking G418 and infected overnight with HIV-1 (H9/IIIB strain) virus at an approximate multiplicity of infection of 0.01 in the same incubation conditions. Cells were then washed and re-suspended in either RPMI 1640 at 2×10^5 cells/mL (0% NHS condition) or 100% normal human serum (NHS) at 2×10^5 cells/mL (100% NHS condition). Compound plates were prepared by dispensing compounds dissolved in DMSO into wells of 384 well poly-D-lysine-coated plates (0.2 μl/well) using an ECHO acoustic dispenser. Each compound was tested in a 10-point serial 3-fold dilution (typical final concentrations: 1050 nM-0.05 nM for 0% NHS condition or […]-2.13 nM for 100% NHS condition). Controls included no inhibitor (DMSO only) and a combination of three antiviral agents (efavirenz, indinavir, an in-house integrase strand transfer inhibitor at final concentrations of […] each). Cells were added ([…]) to compound plates and the infected cells were maintained at 37° C./5% CO2/90% relative humidity.
Infected cells were quantified at two time points, ˜48 h and ˜72 h post-infection, by counting the number of green cells in each well using an Acumen eX3 scanner. The increase in the number of green cells over ˜24 h period gives the reproductive ratio, RO, which is typically 5-15 and has been shown experimentally to be in logarithmic phase (data not shown). Inhibition of R0 is calculated for each well, and IC50s determined by non-linear 4-parameter curve fitting.

[1] = Human immunodeficiency virus 1, IIIB

SMILES | IC50 [nM] | IC50 [1] [nM]
CCN1CN2CC(O)c3c(C(=O)NCc4c(F)cc(F)cc4F)c(=O)c(O)c(n32)C1=O (centres unmarked) [Compound 56] | 2.9 | –
CCN1CN2CC(O)c3c(C(=O)NCc4ccc(F)cc4)c(=O)c(O)c(n32)C1=O (centres unmarked) [Compound 62] | 5.2 | –
CC1N(C)C(=O)c2c(O)c(=O)c(C(=O)NCc3ccc(F)cc3F)c3n2N1CC3O (centres unmarked) [Compound 16] | 1.9 | –
CCN1CN2CC(O)c3c(C(=O)NCc4ccccc4F)c(=O)c(O)c(n32)C1=O (centres unmarked) [Compound 63] | 1.6 | –
CN1C(=O)c2c(O)c(=O)c(C(=O)NCc3ccc(F)cc3F)c3n2N(CC3O)C12CCOC2 (centres unmarked) [Compound 114] | 1.9 | –
CCN1CN2CC(O)c3c(C(=O)NCc4c(F)ccc(F)c4F)c(=O)c(O)c(n32)C1=O (centres unmarked) [Compound 47] | – | 2.8
CCN1CN2CC(O)c3c(C(=O)NCc4ccc(F)cc4)c(=O)c(O)c(n32)C1=O (centres unmarked) [Compound 61] | 1.9 | –
COCCN1CN2CC(O)c3c(C(=O)NCc4c(F)ccc(Cl)c4F)c(=O)c(O)c(n32)C1=O (centres unmarked) [Compound 43] | – | 3.4
COCCN1CN2CC(O)c3c(C(=O)NCc4cccc(Cl)c4F)c(=O)c(O)c(n32)C1=O (centres unmarked) [Compound 41] | – | 2.8
CN1C(=O)c2c(O)c(=O)c(C(=O)NCc3c(F)ccc(Cl)c3F)c3n2N(CC3O)C12CCOC2 (single isomer, unassigned) [Compound 115] | – | 2
CC1N(C)C(=O)c2c(O)c(=O)c(C(=O)NCc3ccc(F)cc3F)c3n2N1CC3O (single isomer, unassigned) [Compound 13] | – | 1.7
CCN1C(=O)c2c(O)c(=O)c(C(=O)NCc3ccc(C(F)(F)F)cc3)c3n2N(CC3O)C1C (single isomer, unassigned) [Compound 77] | 258 | –
CCN1CN2CC(O)c3c(C(=O)NCc4c(F)cc(F)cc4F)c(=O)c(O)c(n32)C1=O (centres unmarked) [Compound 55] | – | 1.6
CCC1N(C)C(=O)c2c(O)c(=O)c(C(=O)NCc3ccc(F)cc3F)c3n2N1CC3O (single isomer, unassigned) [Compound 30] | 1.6 | –
CCN1C(=O)c2c(O)c(=O)c(C(=O)NCc3ccc(C(F)(F)F)cc3)c3n2N(CC3O)C1C (centres unmarked) [Compound 80] | 219 | –
CCN1C(=O)c2c(O)c(=O)c(C(=O)NCc3ccc(C(F)(F)F)cc3)c3n2N(CC3O)C1C (centres unmarked) [Compound 79] | 103 | –
CCN1CN2CC(O)c3c(C(=O)NCc4ccc(F)c(Cl)c4F)c(=O)c(O)c(n32)C1=O (centres unmarked) [Compound 49] | 2 | –
CCN1C(=O)c2c(O)c(=O)c(C(=O)NCc3c(F)ccc(F)c3F)c3n2N(CC3O)C1C (single isomer, unassigned) [Compound 81] | – | 2.8
CCN1C(=O)c2c(O)c(=O)c(C(=O)NCc3ccc(C(F)F)cc3)c3n2N(CC3O)C1C (single isomer, unassigned) [Compound 73] | – | 80

SMILES | IC50 [nM] | IC50 [1] [nM]
CCN1C(=O)c2c(O)c(=O)c(C(=O)NCc3c(F)ccc(F)c3F)c3n2N(CC3O)C1C (centres unmarked) [Compound 83] | – | 2.5
CN1C(=O)c2c(O)c(=O)c(C(=O)NCc3c(F)ccc(Cl)c3F)c3n2N(CC3O)C12CCOC2 (single isomer, unassigned) [Compound 116] | 3.1 | –
CC1N(C)C(=O)c2c(O)c(=O)c(C(=O)NCc3c(F)cc(F)cc3F)c3n2N1CC3O (single isomer, unassigned) [Compound 18] | 1.6 | –
CCN1C(=O)c2c(O)c(=O)c(C(=O)NCc3c(F)ccc(Cl)c3F)c3n2N(CC3O)C1C (single isomer, unassigned) [Compound 70] | 1.8 | –
CCN1CN2CC(O)c3c(C(=O)NCc4c(F)ccc(Cl)c4F)c(=O)c(O)c(n32)C1=O (centres unmarked) [Compound 53] | 1.1 | –
CCC1N(C)C(=O)c2c(O)c(=O)c(C(=O)NCc3c(F)ccc(Cl)c3F)c3n2N1CC3O (centres unmarked) [Compound 28] | 3.3 | –
CCC1N(C)C(=O)c2c(O)c(=O)c(C(=O)NCc3ccc(F)cc3F)c3n2N1CC3O (single isomer, unassigned) [Compound 29] | 0.76 | –
CCN1C(=O)c2c(O)c(=O)c(C(=O)NCc3ccc(C(F)F)cc3)c3n2N(CC3O)C1C (single isomer, unassigned) [Compound 74] | 66 | –
CCN1C(=O)c2c(O)c(=O)c(C(=O)NCc3ccc(F)cc3)c3n2N(CC3O)C1C (centres unmarked) [Compound 88] | 2.9 | –
CCN1CN2CC(O)c3c(C(=O)NCc4ccc(F)cc4F)c(=O)c(O)c(n32)C1=O (centres unmarked) [Compound 57] | – | 2.4
CCN1C(=O)c2c(O)c(=O)c(C(=O)NCc3ccc(C(F)F)cc3)c3n2N(CC3O)C1C (centres unmarked) [Compound 75] | 35 | –
CCN1CN2CC(O)c3c(C(=O)NCc4ccc(F)cc4F)c(=O)c(O)c(n32)C1=O (centres unmarked) [Compound 58] | 4 | –
CCN1CN2CC(O)c3c(C(=O)NCc4c(F)ccc(Cl)c4F)c(=O)c(O)c(n32)C1=O (centres unmarked) [Compound 54] | 4.7 | –
CCN1C(=O)c2c(O)c(=O)c(C(=O)NCc3ccc(F)cc3F)c3n2N(CC3O)C1C (centres unmarked) [Compound 91] | – | 3.3
CN1CN2CC(O)c3c(C(=O)NCc4c(F)ccc(Cl)c4F)c(=O)c(O)c(n32)C1=O (centres unmarked) [Compound 7] | – | 1.6
CC1N(C)C(=O)c2c(O)c(=O)c(C(=O)NCc3c(F)ccc(F)c3F)c3n2N1CC3O (single isomer, unassigned) [Compound 22] | 2.3 | –
COCCN1CN2CC(O)c3c(C(=O)NCc4cccc(Cl)c4F)c(=O)c(O)c(n32)C1=O (centres unmarked) [Compound 42] | 1.9 | –
CCN1C(=O)c2c(O)c(=O)c(C(=O)NCc3ccc(C(F)(F)F)cc3)c3n2N(CC3O)C1C (single isomer, unassigned) [Compound 78] | 87 | –
COCCN1CN2CC(O)c3c(C(=O)NCc4ccc(F)c(Cl)c4F)c(=O)c(O)c(n32)C1=O (centres unmarked) [Compound 40] | 2.1 | –

SMILES | IC50 [nM] | IC50 [1] [nM]
CCC1N(C)C(=O)c2c(O)c(=O)c(C(=O)NCc3c(F)cc(F)cc3F)c3n2N1CC3O (single isomer, unassigned) [Compound 34] | 2.8 | –
CC1N(C)C(=O)c2c(O)c(=O)c(C(=O)NCc3ccc(F)cc3F)c3n2N1CC3O (single isomer, unassigned) [Compound 14] | 1.4 | –
CCN1CN2CC(O)c3c(C(=O)NCc4c(F)ccc(F)c4F)c(=O)c(O)c(n32)C1=O (centres unmarked) [Compound 48] | 2.3 | –
CCC1N(C)C(=O)c2c(O)c(=O)c(C(=O)NCc3c(F)cc(F)cc3F)c3n2N1CC3O (single isomer, unassigned) [Compound 33] | – | 1.4
CCN1C(=O)c2c(O)c(=O)c(C(=O)NCc3c(F)ccc(Cl)c3F)c3n2N(CC3O)C1C (single isomer, unassigned) [Compound 69] | – | 1.9
CCN1CN2CC(O)c3c(C(=O)NCc4ccc(F)c(F)c4F)c(=O)c(O)c(n32)C1=O (centres unmarked) [Compound 60] | 2.8 | –
CC1N(C)C(=O)c2c(O)c(=O)c(C(=O)NCc3c(F)cc(F)cc3F)c3n2N1CC3O (centres unmarked) [Compound 19] | – | 2.7
CN1CN2CC(O)c3c(C(=O)NCc4ccc(F)cc4F)c(=O)c(O)c(n32)C1=O (centres unmarked) [Compound 3] | – | 3.2
CCC1N(C)C(=O)c2c(O)c(=O)c(C(=O)NCc3c(F)cc(F)cc3F)c3n2N1CC3O (centres unmarked) [Compound 35] | – | 2.1
CCN1CN2CC(O)c3c(C(=O)NCc4cccc(Cl)c4F)c(=O)c(O)c(n32)C1=O (centres unmarked) [Compound 52] | 8.1 | –
CCC1N(C)C(=O)c2c(O)c(=O)c(C(=O)NCc3c(F)ccc(Cl)c3F)c3n2N1CC3O (single isomer, unassigned) [Compound 26] | 3.4 | –
CCN1CN2CC(O)c3c(C(=O)NCc4ccccc4F)c(=O)c(O)c(n32)C1=O (centres unmarked) [Compound 64] | 5.9 | –
CCN1C(=O)c2c(O)c(=O)c(C(=O)NCc3c(F)ccc(Cl)c3F)c3n2N(CC3O)C1C (centres unmarked) [Compound 72] | 2.3 | –
CCN1C(=O)c2c(O)c(=O)c(C(=O)NCc3ccc(F)cc3)c3n2N(CC3O)C1C (single isomer, unassigned) [Compound 86] | 1.3 | –
CN1CN2CC(O)c3c(C(=O)NCc4ccc(F)cc4F)c(=O)c(O)c(n32)C1=O (centres unmarked) [Compound 4] | 3.5 | –
CCN1C(=O)c2c(O)c(=O)c(C(=O)NCc3ccc(F)cc3F)c3n2N(CC3O)C1C (single isomer, unassigned) [Compound 90] | 1.9 | –
CCN1C(=O)c2c(O)c(=O)c(C(=O)NCc3c(F)ccc(F)c3F)c3n2N(CC3O)C1C (single isomer, unassigned) [Compound 82] | 2.2 | –
CCN1C(=O)c2c(O)c(=O)c(C(=O)NCc3ccc(F)cc3)c3n2N(CC3O)C1C (single isomer, unassigned) [Compound 85] | – | 2.6
